According to PubChem BioAssay AID248 (DTP/NCI, 2004):
Values joined by “and” are separate entries in the source; they are usually repeats but may differ in a detail not shown here. Identical values can stand only once. Toxic doses and inconclusive results are not listed. Rule as the data show it: active = T/C of 150% or more; inactive = T/C below 125%.

Tested on: L1210 leukemia ip in BDF1 mice, survival T/C
Test: NCI In Vivo Anticancer Drug Screen. Data for tumor model L1210 Leukemia (intraperitoneal) in B6D2F1 (BDF1) mice
Conditions: endpoint: mean survival time, higher = longer survival
Outline: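 Transplantable tumor model; survival measured in treated vs vehicle control mice. Value = treated/control.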

[1] = dose: 100.0 mg/kg/injection, schedule: Q01DX009 (ip), vehicle: saline with Tween-80
[2] = dose: 100.0 mg/kg/injection, schedule: Q04DX003 (ip), vehicle: saline with Tween-80
[3] = dose: 200.0 mg/kg/injection, schedule: Q01DX009 (ip), vehicle: saline with Tween-80
[4] = dose: 200.0 mg/kg/injection, schedule: Q04DX003 (ip), vehicle: saline with Tween-80
[5] = dose: 400.0 mg/kg/injection, schedule: Q01DX009 (ip), vehicle: saline with Tween-80
[6] = dose: 400.0 mg/kg/injection, schedule: Q04DX003 (ip), vehicle: saline with Tween-80
[7] = dose: 100.0 mg/kg/injection, schedule: Q01DX009 (ip), vehicle: Klucel (hydroxypropylcellulose) (HPC)
[8] = dose: 200.0 mg/kg/injection, schedule: Q01DX009 (ip), vehicle: Klucel (hydroxypropylcellulose) (HPC)
[9] = dose: 50.0 mg/kg/injection, schedule: Q04DX003 (ip), vehicle: Klucel (hydroxypropylcellulose) (HPC)
[10] = dose: 400.0 mg/kg/injection, schedule: Q01DX009 (ip), vehicle: Klucel (hydroxypropylcellulose) (HPC)

Measured: T/C

CN(C)c1ccc(N=Nc2ccc(C(C)(C)C)cc2)cc1
inactive: [1] 97 % of control | [2] 95 % of control | [3] 94 % of control | [4] 86 % of control | [5] 89 % of control | [6] 96 % of control

CCC(=O)C(CC)c1cccc(OC)c1 (stereo not drawn)
inactive: [1] 100 % of control | [2] 100 % of control | [3] 94 % of control | [4] 97 % of control | [5] 114 % of control | [6] 97 % of control

CC(=O)Nc1cc(Cl)c(Cl)c([N+](=O)[O-])c1
inactive: [7] 100 % of control | [8] 97 % of control

O=C(O)c1ccc(NC(C[N+](=O)[O-])C(F)(F)C(F)(F)C(F)(F)F)cc1 (stereo not drawn)
inactive: dose: 25.0 mg/kg/injection, schedule: Q04DX003 (ip), vehicle: Klucel (hydroxypropylcellulose) (HPC) 103 % of control | [9] 93 % of control | dose: 100.0 mg/kg/injection, schedule: Q01DX009 (ip), vehicle: saline sonified 95 % of control | dose: 100.0 mg/kg/injection, schedule: Q04DX003 (ip), vehicle: Klucel (hydroxypropylcellulose) (HPC) 103 % of control and 115 % of control | dose: 200.0 mg/kg/injection, schedule: Q01DX009 (ip), vehicle: saline sonified 86 % of control | dose: 200.0 mg/kg/injection, schedule: Q04DX003 (ip), vehicle: Klucel (hydroxypropylcellulose) (HPC) 102 % of control | dose: 400.0 mg/kg/injection, schedule: Q01DX009 (ip), vehicle: saline sonified 88 % of control | dose: 400.0 mg/kg/injection, schedule: Q04DX003 (ip), vehicle: Klucel (hydroxypropylcellulose) (HPC) 100 % of control

CC(C)=CCC(CCN1CCCC1)(C(N)=O)c1cccc2ccccc12 (stereo not drawn)
inactive: dose: 5.0 mg/kg/injection, schedule: Q01DX009 (ip), vehicle: Klucel (hydroxypropylcellulose) (HPC) 102 % of control | dose: 5.0 mg/kg/injection, schedule: Q04DX003 (ip), vehicle: Klucel (hydroxypropylcellulose) (HPC) 98 % of control | dose: 10.0 mg/kg/injection, schedule: Q01DX009 (ip), vehicle: Klucel (hydroxypropylcellulose) (HPC) 95 % of control | dose: 10.0 mg/kg/injection, schedule: Q04DX003 (ip), vehicle: Klucel (hydroxypropylcellulose) (HPC) 104 % of control | dose: 20.0 mg/kg/injection, schedule: Q01DX009 (ip), vehicle: Klucel (hydroxypropylcellulose) (HPC) 98 % of control | dose: 20.0 mg/kg/injection, schedule: Q04DX003 (ip), vehicle: Klucel (hydroxypropylcellulose) (HPC) 104 % of control

CCCNC(=O)Nc1ccc(Cl)cc1
inactive: dose: 100.0 mg/kg/injection, schedule: Q01DX001 (ip), vehicle: carboxymethylcellulose (CMC) 103 % of control | dose: 200.0 mg/kg/injection, schedule: Q01DX001 (ip), vehicle: carboxymethylcellulose (CMC) 98 % of control | dose: 400.0 mg/kg/injection, schedule: Q01DX001 (ip), vehicle: carboxymethylcellulose (CMC) 95 % of control

COC(=O)C1(CN(C)C)CCCC(CN(C)C)(C(=O)OC)C1=O (stereo not drawn)
inactive: dose: 50.0 mg/kg/injection, schedule: Q01DX Z (ip), vehicle: carboxymethylcellulose (CMC) 100 % of control and 106 % of control | dose: 75.0 mg/kg/injection, schedule: Q01DX Z (ip), vehicle: carboxymethylcellulose (CMC) 106 % of control and 109 % of control | dose: 115.0 mg/kg/injection, schedule: Q01DX Z (ip), vehicle: carboxymethylcellulose (CMC) 113 % of control | dose: 160.0 mg/kg/injection, schedule: Q01DX Z (ip), vehicle: carboxymethylcellulose (CMC) 106 % of control and 113 % of control

COc1ccc(NC(=O)CC(C)(C)C(=O)O)cc1
inactive: [1] 94 % of control | [3] 92 % of control | [5] 90 % of control

COc1ccc(NC(=O)Oc2ccc(F)cc2)c(OC)c1
inactive: [7] 89 % of control | [8] 101 % of control | [10] 94 % of control

CCN(CC)/N=N/c1[nH]ncc1C(N)=O
inactive: dose: 88.0 mg/kg/injection, schedule: Q01DX009 (ip), vehicle: saline with Tween-80 119 % of control | dose: 100.0 mg/kg/injection, schedule: Q01DX001 (ip), vehicle: saline with Tween-80 111 % of control | [2] 101 % of control | dose: 200.0 mg/kg/injection, schedule: Q01DX001 (ip), vehicle: saline with Tween-80 103 % of control | [4] 103 % of control | dose: 300.0 mg/kg/injection, schedule: Q01DX009 (ip), vehicle: saline with Tween-80 110 % of control | dose: 400.0 mg/kg/injection, schedule: Q01DX001 (ip), vehicle: saline with Tween-80 106 % of control | [6] 108 % of control

CC(O)C(=O)SCc1ccccc1 (stereo not drawn)
inactive: dose: 100.0 mg/kg/injection, schedule: Q04DX002 (ip), vehicle: saline with Tween-80 95 % of control | dose: 200.0 mg/kg/injection, schedule: Q04DX002 (ip), vehicle: saline with Tween-80 98 % of control | dose: 400.0 mg/kg/injection, schedule: Q04DX002 (ip), vehicle: saline with Tween-80 92 % of control

BrCCC[P+](c1ccccc1)(c1ccccc1)c1ccccc1
inactive: dose: 12.5 mg/kg/injection, schedule: Q01DX009 (ip), vehicle: saline with Tween-80 103 % of control | dose: 25.0 mg/kg/injection, schedule: Q04DX003 (ip), vehicle: saline with Tween-80 97 % of control | dose: 50.0 mg/kg/injection, schedule: Q01DX001 (ip), vehicle: saline 104 % of control | [9] 107 % of control | dose: 50.0 mg/kg/injection, schedule: Q04DX003 (ip), vehicle: saline with Tween-80 97 % of control | dose: 100.0 mg/kg/injection, schedule: Q01DX001 (ip), vehicle: saline 116 % of control

CCC(COC(=O)c1ccc(N(CC)CC)cc1)NC1CCCCC1 (stereo not drawn)
inactive: dose: 75.0 mg/kg/injection, schedule: Q01DX001 (ip), vehicle: carboxymethylcellulose (CMC) 95 % of control | dose: 150.0 mg/kg/injection, schedule: Q01DX001 (ip), vehicle: carboxymethylcellulose (CMC) 95 % of control | dose: 300.0 mg/kg/injection, schedule: Q01DX001 (ip), vehicle: carboxymethylcellulose (CMC) 94 % of control

O=C1CCC2CCC(CC2)O1
inactive: dose: 5.0 mg/kg/injection, schedule: Q01DX001 (ip), vehicle: saline 119 % of control | dose: 10.0 mg/kg/injection, schedule: Q01DX001 (ip), vehicle: saline 92 % of control | dose: 20.0 mg/kg/injection, schedule: Q01DX001 (ip), vehicle: saline 97 % of control

O=C1C2CC3C=CC1C(C3)C2 (stereo not drawn) (tested in a mixture with another compound)
inactive: dose: 100.0 mg/kg/injection, schedule: Q01DX001 (ip), vehicle: Klucel (hydroxypropylcellulose) (HPC) 104 % of control | dose: 200.0 mg/kg/injection, schedule: Q01DX001 (ip), vehicle: Klucel (hydroxypropylcellulose) (HPC) 103 % of control | dose: 400.0 mg/kg/injection, schedule: Q01DX001 (ip), vehicle: Klucel (hydroxypropylcellulose) (HPC) 97 % of control

O=C(O)CC1(CC(=O)O)CCCCC1
inactive: [1] 90 % of control | [3] 95 % of control | [5] 92 % of control

CSc1ccc(NC(=O)C(Cl)Cl)cc1
inactive: [7] 95 % of control | dose: 100.0 mg/kg/injection, schedule: Q04DX002 (ip), vehicle: Klucel (hydroxypropylcellulose) (HPC) 97 % of control | [8] 105 % of control | [10] 101 % of control | dose: 400.0 mg/kg/injection, schedule: Q04DX002 (ip), vehicle: Klucel (hydroxypropylcellulose) (HPC) 93 % of control

CC1(CO)COC2(CCCCC2)N1 (stereo not drawn)
inactive: dose: 75.0 mg/kg/injection, schedule: Q01DX001 (ip), vehicle: saline 102 % of control | dose: 150.0 mg/kg/injection, schedule: Q01DX001 (ip), vehicle: saline 92 % of control | dose: 300.0 mg/kg/injection, schedule: Q01DX001 (ip), vehicle: saline 96 % of control
